Measured values taken from US9839642B2, “Beta-tetrazolyl-propionic acids as metallo-beta-lactamase inhibitors” (priority 2014, dated 2017).
Like-named read-outs stand apart in the source and are kept apart here.

Key:
NDM-1 = NDM-1 (Klebsiella pneumoniae, UniProt C7C422); assay: Enzyme activity: determination of IC50, fluorescence assay with CCF2-FA substrate; type: biochemical; conditions: CCF2-FA 1.25 μM, 2 hours at 25° C., read-out: NDM1 IC50
In short: (§1)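 Read-out: fluorescence, ex 405 nm / em 460 nm, after 2 h at 25° C with 1.25 μM CCF2-FA. Buffer 100 mM KH2PO4 pH 7, 0.005% Tween-20, 10 μM ZnSO4; enzyme 1 pM NDM-1, 2 pM IMP-1, 30 pM VIM-1. IC50 by 4-parameter fit.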

IMP-1 = IMP-1 (Serratia marcescens, UniProt P52699); assay: as above; type: biochemical; conditions: CCF2-FA 1.25 μM, 2 hours at 25° C., read-out: IMP1 IC50
In short: as §1

VIM-1 = VIM-1 (Pseudomonas aeruginosa, UniProt A0A0F7KYQ8); assay: as above; type: biochemical; conditions: CCF2-FA 1.25 μM, 2 hours at 25° C., read-out: VIM1 IC50
In short: as §1

[1] = tested on: Escherichia coli expressing NDM-1 (CLB30016); assay: Antibiotic potentiation activity: synergistic concentration (MITC95) with imipenem, growth by OD600; type: cell-based
In short: (§2)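 Strains grown overnight at 35° C, resuspended in saline, diluted 1:100 into 1.1×CAMHB; imipenem at 1 μg/ml or 4 μg/ml with test compound 200 μM to 0.195 μM. Incubated 22 hours to 24 hours at 35° C, OD600 read; MITC95 is lowest compound concentration inhibiting 95% of growth.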

[2] = tested on: Klebsiella pneumoniae expressing VIM-1 (IHMA599644); assay: as above; type: cell-based
In short: as §2

[3] = tested on: Serratia marcescens expressing IMP-1 (CL5741); assay: as above; type: cell-based
In short: as §2

[4] = 95% inhibition of bacterial growth, strain CLB30016
[5] = 95% inhibition of bacterial growth, strain IHMA599644
[6] = 95% inhibition of bacterial growth, strain CL5741
[7] = E. coli CLB30016 (NDM-1), 95% inhibition of growth
[8] = K. pneumoniae IHMA599644 (VIM-1), 95% inhibition of growth
[9] = S. marcescens CL5741 (IMP-1), 95% inhibition of growth

NDM-1, sequence (C7C422 29-270, looked up, species assumed): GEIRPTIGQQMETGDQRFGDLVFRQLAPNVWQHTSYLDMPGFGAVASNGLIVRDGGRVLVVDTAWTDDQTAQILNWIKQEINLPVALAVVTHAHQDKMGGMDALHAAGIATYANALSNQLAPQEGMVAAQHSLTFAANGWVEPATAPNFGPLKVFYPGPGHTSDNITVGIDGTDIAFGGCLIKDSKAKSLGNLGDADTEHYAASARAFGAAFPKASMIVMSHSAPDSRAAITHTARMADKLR
IMP-1, sequence (P52699 19-246, looked up, species assumed): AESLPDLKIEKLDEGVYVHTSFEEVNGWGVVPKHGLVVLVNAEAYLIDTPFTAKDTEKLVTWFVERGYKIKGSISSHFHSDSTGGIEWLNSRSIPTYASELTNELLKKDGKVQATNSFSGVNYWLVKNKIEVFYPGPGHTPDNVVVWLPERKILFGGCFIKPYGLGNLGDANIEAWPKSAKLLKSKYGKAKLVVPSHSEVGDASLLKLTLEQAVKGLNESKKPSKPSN

Row | SMILES | IC50 (NDM-1; enzyme 1 pM) | IC50 (IMP-1; enzyme 2 pM) | IC50 (VIM-1; enzyme 30 pM) | NDM1 EC30016 MITC95 [1, 4] | VIM1 KP599644 MITC95 [2, 5] | IMP1 SM5741 MITC95 [3, 6] | IC50 (NDM-1; NDM-1 enzyme 1 pM) | IC50 (IMP-1; IMP-1 enzyme 2 pM) | IC50 (VIM-1; VIM-1 enzyme 30 pM) | NDM1 EC30016 MITC95 [1, 7] | VIM1 KP599644 MITC95 [2, 8] | IMP1 SM5741 MITC95 [3, 9]
1 | CCC[C@H](C(=O)O)[C@H](Cc1ccc(N2CCN(C(C)=O)CC2)cc1)c1nn[nH]n1 [Example 228, (2S)-2-[(1S)-2-[4-(4-acetylpiperazin-1-yl)phenyl]-1-(2H-tetrazol-5-yl)ethyl]pentanoic acid] | 33 nM | 220 nM | 15 nM | 75 µM | 200 µM | 16 µM |  |  |  |  |  | 
2 | CCC[C@H](C(=O)O)[C@H](Cc1ccc(C2CCN(C=N)CC2)nc1)c1nnn[nH]1 [Example 299, (S)-2-((S)-2-(6-(1-(iminomethyl)piperidin-4-yl)pyridin-3-yl)-1-(1H-tetrazol-5-yl)ethyl)pentanoic acid] |  |  |  |  |  |  | 220 nM | 4400 nM | 22 nM | 1.6 µM | 25 µM | 50 µM
3 | CCC[C@H](C(=O)O)[C@H](Cc1ccc(C(=O)N2CCC(N)CC2)cc1)c1nnn[nH]1 [Example 278, (2S)-2-[(1S)-2-{4-[(4-aminopiperidin-1-yl)carbonyl]phenyl}-1-(1H-tetrazol-5-yl)ethyl]pentanoic acid] |  |  |  |  |  |  | 10 nM | 200 nM | 120 nM | 12.5 µM | 50 µM | 6.2 µM
4 | CCC[C@H](C(=O)[O-])[C@H](Cc1ccc(C2=CCC[N+](C)(C)C2)nc1)c1nnn[nH]1 [Example 293, (S)-2-((S)-2-(1′,1′-dimethyl-1′,2′,5′,6′-tetrahydro-[2,3′-bipyridin]-1′-ium-5-yl)-1-(1H-tetrazol-5-yl)ethyl)pentanoate] |  |  |  |  |  |  | 2400 nM | 16000 nM | 22 nM | 25 µM | 50 µM | 100 µM
5 | NCc1ccc(-c2ccc(C[C@H](c3nnn[nH]3)[C@@H](C(=O)O)C3CCCC3)cc2)cc1 [Example 75, (2S,3S)-4-(4′-(aminomethyl)-[1,1′-biphenyl]-4-yl)-2-cyclopentyl-3-(1H-tetrazol-5-yl)butanoic acid] | 25 nM | 36 nM | 4.3 nM | 3.1 µM | 9.4 µM | 0.78 µM |  |  |  |  |  | 
6 | CC(C)C[C@H](C(=O)O)[C@H](Cc1ccc(C2CCNC2)nc1)c1nnn[nH]1 (stereo partly drawn) [Example 100, (2S)-4-methyl-2-((1S)-2-(6-(pyrrolidin-3-yl)pyridin-3-yl)-1-(1H-tetrazol-5-yl)ethyl)pentanoic acid] | 280 nM | 2900 nM | 4.9 nM | 6.2 µM | 12.5 µM | 25 µM |  |  |  |  |  | 
7 | CC(C)[C@H](C(=O)O)[C@H](Cc1ccc(NC(CO)CO)nc1)c1nnn[nH]1 [Example 141, (2S,3S)-4-(6-((1,3-dihydroxypropan-2-yl)amino)pyridin-3-yl)-2-isopropyl-3-(1H-tetrazol-5-yl)butanoic acid] | 3600 nM | > 20000 nM | 800 nM | 12.5 µM | 150 µM | >200 µM |  |  |  |  |  | 
8 | CCC[C@H](C(=O)O)[C@H](Cc1ccc(C(F)(F)F)cc1)c1nnn[nH]1 [Example 153, (S)-2-((S)-1-(1H-tetrazol-5-yl)-2-(4-(trifluoromethyl)phenyl)ethyl)pentanoic acid] | 58 nM | 510 nM | 2.1 nM | 9.4 µM | 25 µM | 25 µM |  |  |  |  |  | 
9 | CCC[C@H](C(=O)O)[C@H](Cc1ccc(C(=O)N(C)C)cc1)c1nnn[nH]1 [Example 277, (2S)-2-[(1S)-2-[4-(dimethylcarbamoyl)phenyl]-1-(1H-tetrazol-5-yl)ethyl]pentanoic acid] |  |  |  |  |  |  | 10 nM | 130 nM | 13 nM | 25 µM | 75 µM | 12.5 µM
10 | CCC[C@H](C(=O)O)[C@H](Cc1ccccc1C1=CCC(NC)CC1)c1nn[nH]n1 (stereo partly drawn) [Example 448, 2′-((2S,3S)-3-carboxy-2-(2H-tetrazol-5-yl)hexyl)-N-methyl-2,3,4,5-tetrahydro-[1,1′-biphenyl]-4-aminium 2,2,2-trifluoroacetate] |  |  |  |  |  |  | 92.5 nM | 7790 nM | 48.6 nM | 12.5 µM | 37.5 µM | 200 µM
11 | CC(C)(C)[C@H](C(=O)O)[C@H](Cc1ccc(NC(=N)N)nc1)c1nnn[nH]1 [Example 422, (2R,3S)-2-(tert-butyl)-4-(6-guanidinopyridin-3-yl)-3-(1H-tetrazol-5-yl)butanoic acid] |  |  |  |  |  |  | 228 nM | 104 nM | 4.01 nM | 12.5 µM | 6.25 µM | 25 µM
12 | Cc1cc(C[C@H](c2nnn[nH]2)[C@@H](C(=O)O)C(C)C)ccc1C1=CCNC1 [Example 68, (2S,3S)-4-(4-(2,5-dihydro-1H-pyrrol-3-yl)-3-methylphenyl)-2-isopropyl-3-(1H-tetrazol-5-yl)butanoic acid] | 24 nM | 1100 nM | 0.79 nM | 4.7 µM | 6.2 µM | 12.5 µM |  |  |  |  |  | 
13 | CCC[C@H](C(=O)O)[C@H](Cc1ccc(NC2CCCN(CCC)C2)cc1)c1nn[nH]n1 (stereo partly drawn) [Example 223, (2S)-2-[(1S)-2-{4-[(1-propylpiperidin-3-yl)amino]phenyl}-1-(2H-tetrazol-5-yl)ethyl]pentanoic acid] | 500 nM | 1300 nM | 71 nM | 38 µM | 75 µM | 25 µM |  |  |  |  |  | 
14 | CC(C)[C@H](C(=O)O)[C@H](Cc1ccc(N)cn1)c1nnn[nH]1 [Example 125, (2S,3S)-4-(5-aminopyridin-2-yl)-2-isopropyl-3-(1H-tetrazol-5-yl)butanoic acid] | 170 nM | 12000 nM | 240 nM | 0.39 µM | 12.5 µM | 75 µM |  |  |  |  |  | 
15 | CCC[C@H](C(=O)O)[C@H](Cc1ccc(CN2CCNCC2)cc1)c1nnn[nH]1 [Example 55, (S)-2-((S)-2-(4-(piperazin-1-ylmethyl)phenyl)-1-(1H-tetrazol-5-yl)ethyl)pentanoic acid] | 120 nM | 810 nM | 19 nM | 6.2 µM | 25 µM | 18.8 µM |  |  |  |  |  | 
16 | CC(C)[C@H](C(=O)O)[C@H](Cc1ccc(-c2ccc3c(c2)CNC3)nc1)c1nnn[nH]1 [Example 76, (2S,3S)-4-(6-(isoindolin-5-yl)pyridin-3-yl)-2-isopropyl-3-(1H-tetrazol-5-yl)butanoic acid] | 120 nM | 2600 nM | 18 nM | 9.4 µM | 18.8 µM | 37.5 µM |  |  |  |  |  | 
17 | CC(C)C[C@H](C(=O)O)[C@H](Cc1ccc(Oc2ccc(CO)cc2)nc1)c1nn[nH]n1 [Example 383, (2S)-2-[(1S)-2-{6-[4-(hydroxymethyl)phenoxy]pyridin-3-yl}-1-(2H-tetrazol-5-yl)ethyl]-4-methylpentanoic acid] |  |  |  |  |  |  | 34 nM | 150 nM | 56 nM | 25 µM | 150 µM | 12.5 µM
18 | CCC[C@H](C(=O)O)[C@H](Cc1ccc(NCc2ccc(O)cc2)nc1)c1nnn[nH]1 [Example 132, (S)-2-((S)-2-(6-((4-hydroxybenzyl)amino)pyridin-3-yl)-1-(1H-tetrazol-5-yl)ethyl)pentanoic acid] | 160 nM | 1500 nM | 31 nM | 9.4 µM | 25 µM | 38 µM |  |  |  |  |  | 
19 | CCC[C@H](C(=O)O)[C@H](Cc1cccc(N2CCN(C(C)=O)CC2)c1)c1nn[nH]n1 [Example 363, (2S)-2-[(1S)-2-[3-(4-acetylpiperazin-1-yl)phenyl]-1-(2H-tetrazol-5-yl)ethyl]pentanoic acid] |  |  |  |  |  |  | 150 nM | 810 nM | 20 nM | 100 µM | 100 µM | 25 µM
